Measurements: patent US20210038668A1, “TRADITIONAL CHINESE MEDICINE COMPOSITION FOR PREVENTING AND/OR TREATING ISCHEMIC REPERFUSION INJURY” (TASLY PHARMACEUTICAL GROUP CO., LTD., priority 2018, published 2021)

Assays:
Type in all cases: in vivo, C57BL/6 mice
Bax = assay: Western blotting of Bax in brain tissue; conditions: brain tissue 24 h after administration, sham = 1.00; tPA 10 mg/kg alone or + T541 20 mg/kg or ingredients at Table 7 doses
Source text: (§1) To compare the therapeutical effect on reperfusion injury caused by tPA thrombolysis between the traditional Chinese medicinal composition of the present invention and each ingredient (total saponins of Astragalus, the experiment was divided into the following group (tPA is combined with T541, individual ingredient thereof and compatibility of any two ingredients) specifically as follows: tPA+total saponins of Astragalus (tPA+HQ), tPA+ salvianolic acids (tPA+DS), tPA+Panax notoginseng saponins (tPA+SQ), tPA+ total saponins of Astragalus+salvianolic acids (tPA+HQ+DS), tPA+ total saponins of Astragalus+Panax notoginseng saponins (tPA+HQ+SQ), tPA+ salvianolic acids+Panax notoginseng saponins (tPA+DS+SQ) and tPA+T541. Normal saline served as an isovolumetric control. The usage number in each group is 6.
After reperfused for 24 hours, mice were perfused by normal saline; Western blotting analysis was conducted to the penumbra field of infarcted right cerebral cortex. […] Excessive supernatant was taken out and quantified by a BCA protein quantification liquor (ThermoScientific, US) to measure absorbance value at 560 nm of ELIASA and to calculate the protein concentration according to a standard curve. […] The density of electrophoretic strips was analyzed by an image analysis software Quantityone. […]

mitochondrial complex II = assay: Mitochondrial complex II activity in brain tissue; conditions: brain tissue 24 hours after administration; tPA 10 mg/kg alone or + T541 20 mg/kg or ingredients at Table 7 doses
Source text: as §1
(§2) ELISA adsorption kit was used to measure the change on the content of MDA, 8-hydroxyl-2′-deoxyguanosine (8-OHdG), adenosine triphosphate (ATP), adenosine diphosphate (ADP) and adenosine monophosphate (AMP) in the penumbra field of brain tissue cortex of the mode, and the change on the activity of mitochondrial complexes I, II, IV and V. 6 samples were used to repeat the independent experiment for at least three times for each group of data.

cerebral hemorrhage = assay: Hemoglobin in right hemisphere tissue (cerebral hemorrhage); conditions: 24 h after administration, tPA 10 mg/kg alone, T541 20 mg/kg + tPA 10 mg/kg
Experimental: After reperfused for 24 hours, mice were perfused via heart by a PBS buffer precooled at 4° C. and separated brain via craniotomy; the brain was cut from front to back into 5 slices in a brain stereotaxic apparatus; bleeding condition was rapidly shoot by a stereoscopic microscope; then slices were stored at −80° C.; and hemoglobin was measured by a hemoglobin spectrophotometry cassette.

mitochondrial complex IV = assay: Mitochondrial complex IV activity in brain tissue; conditions: brain tissue 24 hours after administration; tPA 10 mg/kg alone or + T541 20 mg/kg or ingredients at Table 7 doses
Source text: as §1, §2

Laminin = assay: Western blotting of Laminin, basement membrane; conditions: brain tissue 24 hours after administration, sham = 1.00; tPA 10 mg/kg alone; T541 20 mg/kg + tPA 10 mg/kg
Experimental: After reperfused for 24 hours, mice were perfused by normal saline; Western blotting analysis was conducted to the penumbra field of infarcted right cerebral cortex. After perfused, mice brain tissue was taken out; cerebellum and prefrontal lobe were cut off; the brain tissue of right brain close to 1 cm of the central joint of left and right hemispheres along the sagittal view; infarcted penumbra field of the rest tissues was cut off along an 45° angle; the cerebral cortex of the penumbra field was peeled off and preserved at low temperature. Right cerebral cortex was taken and added 1×RIPA lysate and a Cocktail protease inhibitor (1:100, Cell Signaling Technology, US) for full pyrolysis and ultrasonic treatment, and then 17000 g were centrifuged for 30 minutes. Supernatant was taken and added 5×loading buffer by volume, boiled for 20 minutes in boiling water, and then preserved at −80° C. Excessive supernatant was taken out and quantified by a BCA protein quantification liquor (ThermoScientific, US) to measure absorbance value at 560 nm of ELIASA and to calculate the protein concentration according to a standard curve. […] The density of electrophoretic strips was analyzed by an image analysis software Quantityone. […]

MDA = assay: ELISA of MDA in brain tissue; conditions: brain tissue 24 hours after administration; tPA 10 mg/kg alone or + T541 20 mg/kg or ingredients at Table 7 doses
Source text: as §1, §2

## tPA: tissue-type plasminogen activator (tPA) for thrombolysis
Bax
  Bax: 5.52 ± 0.78
  Bax/Bcl-2: 3.82 ± 0.57
Mitochondrial complex II
  Complex II activity: 0.025 ± 0.005
Cerebral hemorrhage
  Hemoglobin: 13.55 ± 3.72
Mitochondrial complex IV
  Complex IV activity: 0.267 ± 0.016
Laminin
  Laminin content: 0.47 ± 0.06
MDA
  MDA: 30.08 ± 2.90
